Assays:
[1] = test system: A549 lung carcinoma cells; assay: A549 cell-assay, cellular PGE2 synthesis; type: cell-based; details: Homo sapiens, PGE2 content by EIA, TNFalfa/IL-1beta stimulated cells, 10 μM arachidonic acid, arithmetic mean values
Method: Prostaglandin detection kits were purchased from Cayman Chemicals and used according to the instruction of the manufacturer.
A549 lung carcinoma cells, seeded at a density of 10,000 cells/well, were grown in 96 well tissue culture plates. TNFalfa (5 ng/mL) and IL-1beta (5 ng/mL) were added and the cells were incubated for 16 hours. Cells were washed in PBS and test compounds at the appropriate concentration in HBSS/0.1% BSA were added. After 30 minutes of incubation with test compounds, 10 μM arachidonic acid was added and cells were further incubated for 30 minutes. Supernatant was collected and analyzed for PGE2 content by EIA according to manufacturer's instructions.

[2] = biological target: T1, recombinant membrane-bound human mPGEs-1 (Homo sapiens, UniProt O14684); assay: Thiobarbituric acid assay (TBA-MDA assay), inhibition of human mPGEs-1; type: biochemical; details: arithmetic mean values
T1 sequence (O14684 1-152): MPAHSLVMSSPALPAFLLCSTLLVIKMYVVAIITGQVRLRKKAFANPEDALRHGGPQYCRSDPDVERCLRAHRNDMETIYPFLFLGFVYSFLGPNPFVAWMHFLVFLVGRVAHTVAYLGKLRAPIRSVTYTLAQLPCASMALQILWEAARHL
From the text: Malondialdehyde is a product of lipid peroxidation and reacts with thiobarbituric acid forming a red product that absorbs light at 535 nm (W. G. Niehaus, Jr and B. Samuelsson, Eur. J. Biochem 6, 126 (1968)) and is also fluorescent. The extinction coefficient of the TBA-MDA conjugate is 1.56×10^5 M^−1 cm^−1 (E. D. Wills. Biochem. J. 113, 315 (1969). The method used for detection of inhibition of mPGEs-1 is based on the detection of the amount of remaining PGH2. This method was described more than 20 years ago by Basevich et al (Bioorg. Khim. 1983, 9(5), 658-665).
The assay used was a modified variant and used citric acid instead of the TCA-TBA-HCl reagent described in the original assay. In this assay, recombinant membrane-bound human mPGEs-1 was incubated with PGH2. The reaction was stopped by adding citric acid to a final pH 3 and a large excess of iron(II) chloride (20 mM) to convert any remaining PGH2 into MDA and 12-HHT. TBA reagent was finally added (0.67%) and the samples were heated at 80° C. for 30 min. The fluorescence of the conjugate was measured at 485/545 nm.
The product of mPGEs-1 (PGE2) was not measured directly in this assay, but rather the remaining substrate (PGH2) indirectly by adding FeCl2 that converts PGH2 into MDA and 12-HHT. As a positive control, a known mPGEs-1 inhibitor, MK-886, was used and the inhibition afforded by the new inhibitors was compared with that obtained from MK-886.

Row | Structure (SMILES) | IC50 [1] [nM] | IC50 [2] [nM]
1 | Cc1cc2c(cc1Cl)nc(N1CCC(C(=O)N[C@@H]3CCOC3)CC1)n2-c1cccc(C(F)(F)F)n1 [Example 1, (R)-1-(5-chloro-6-methyl-1-(6-(trifluoromethyl)pyridin-2-yl)-111-benzo[d]imidazol-2-yl)-N-(tetrahydrofuran-3-yl)piperidine-4-carboxamide] | 28 | 18
2 | Cc1cc2nc(N3CCC(C(=O)N[C@@H]4CCOC4)CC3)n(-c3cccc(C(F)(F)F)n3)c2cc1Cl [Example 2, (R)-1-(6-chloro-5-methyl-1-(6-(trifluoromethyl)pyridin-2-yl)-1H-benzoimidazol-2-yl)-N-(tetrahydrofuran-3-yl)piperidine-4-carboxamide] | 52 | 24
3 | Cc1cc2c(cc1Cl)nc(N1CCC(C(=O)N[C@@H]3CCOC3)CC1)n2-c1ccc(C(F)(F)F)cn1 [Example 3, (R)-1-(5-chloro-6-methyl-1-(5-(trifluoromethyl)pyridin-2-yl)-1H-benzo[d]imidazol-2-yl)-N-(tetrahydrofuran-3-yl)-piperidine-4-carboxamide] | 85 | 58
4 | Cc1cc2nc(N3CCC(C(=O)N[C@@H]4CCOC4)CC3)n(-c3ccc(C(F)(F)F)cn3)c2cc1Cl [Example 4, (R)-1-(6-chloro-5-methyl-1-(5-(trifluoromethyl)pyridin-2-yl)-1H-benzo[d]imidazol-2-yl)-N-(tetrahydrofuran-3-yl)-piperidine-4-carboxamide] | 122 | 46

Reference: patent US20160122330A1, “PIPERIDINYL BENZOIMIDAZOLE DERIVATIVES AS MPGE-1 INHIBITORS” (NOVASAID AB, priority 2013, published 2016)
